The values below are quoted from earlier work in US20110008439A1, “DULOXETIN COMPOSITION” (priority 2006, published 2011).

For the data set the following is noted: pH values less than 2.5.

With `CNCC[C@H](Oc1cccc2ccccc12)c1cccs1` [Duloxetine, duloxetine], the Stability in solution result is reported as “unstable”.
